{
  "source": "patent US12577255B2",
  "about": "“MDM2-based modulators of proteolysis and associated methods of use” (Arvinas Operations, Inc., priority 2015, dated 2026)",
  "key": {"[1]": {"test_system": "c-Jun N-terminal kinases (JNK)", "assay": "JNK Western blot assay (degradation)", "type": "cell-based", "settings": "at 1 μM; 16 h", "experimental": "(§1) The following biological assays were performed to evaluate the protein degradation in various cell types using representative compounds disclosed. The degradation of the following proteins were evaluated: bromodomain-containing protein 4 (BRD4), androgen receptor (AR), c-Myc, c-Jun N-terminal kinases (JNK), and enhancer of zeste homolog 2 (EZH2).\nCells were purchased from ATCC and cultured in Dulbecco's Modified Eagle's Medium (ATCC), supplemented with 10% FBS (ATCC) and Penicillin/Streptomycin (Life Technologies). […] Cells were harvested, and lysed in RIPA buffer (50 mM Tris pH8, 150 mM NaCl, 1% Tx-100, 0.1% SDS, 0.5% sodium deoxycholate) supplemented with protease and phosphatase inhibitors. Lysates were clarified at 16,000 g for 10 minutes, and protein concentration was determined. Equal amount of protein (20 μg) was subjected to SDS-PAGE analysis and followed by immunoblotting according to standard protocols."}, "[2]": {"target": "T1, bromodomain-containing protein 4 (BRD4) (Homo sapiens, UniProt O60885)", "T1 construct": "VCaP cells were chased from ATCC and cultured in Dulbecco's Modified Eagle's Medium; host or cells: VCaP", "assay": "BRD4 Western blot (degradation)", "type": "cell-based", "settings": "at 1 μM; VCaP cells, 16 h", "experimental": "as §1\nVCaP cells were chased from ATCC and cultured in Dulbecco's Modified Eagle's Medium (ATCC), supplemented with 10% FBS (ATCC) and Penicillin/Streptomycin (Life Technologies). DMSO control and compound treatments (0.03 μM to 1 μM) were performed in 12-well plates for 16 h. cells were harvested, and lysed in RIPA buffer (50 mM Tris pH8, 150 mM NaCl, 1% Tx-100, 0.1% SDS, 0.5% sodium deoxycholate) supplemented with protease and phosphatase inhibitors. Lysates were clarified at 16,000 g for 10 minutes, and protein concentration was determined. Equal amount of protein (20 μg) was subjected to SDS-PAGE analysis and followed by immunoblotting according to standard protocols. The antibodies used were BRD4 (Cell signaling #13440), and Actin (Sigma #5441). Detection reagents were Clarity Western ELC substrate (Bio-rad #170-5060)."}, "[3]": {"target": "T2, MDM2 (Homo sapiens, UniProt Q00987)", "T2 construct": "Western blot of HCT116 cells treated with chimeric molecules; endogenous in cells; host or cells: HCT116", "T2 sequence (Q00987 whole entry)": "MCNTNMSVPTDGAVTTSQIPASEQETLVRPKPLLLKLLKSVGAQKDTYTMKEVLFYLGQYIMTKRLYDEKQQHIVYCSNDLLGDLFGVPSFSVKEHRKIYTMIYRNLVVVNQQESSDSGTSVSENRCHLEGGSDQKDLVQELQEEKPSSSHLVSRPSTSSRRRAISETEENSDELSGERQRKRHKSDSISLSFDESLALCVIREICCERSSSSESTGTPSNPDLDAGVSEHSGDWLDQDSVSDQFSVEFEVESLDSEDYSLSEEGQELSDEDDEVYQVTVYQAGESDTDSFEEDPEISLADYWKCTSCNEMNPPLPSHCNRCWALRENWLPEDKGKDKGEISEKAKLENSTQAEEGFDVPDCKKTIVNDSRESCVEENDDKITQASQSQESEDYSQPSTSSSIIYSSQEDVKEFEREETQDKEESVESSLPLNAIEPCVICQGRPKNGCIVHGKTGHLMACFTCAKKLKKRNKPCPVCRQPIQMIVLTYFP", "assay": "Western blot of HCT116 cells, MDM2 level", "type": "cell-based", "settings": "Western blot (FIG. 2, FIG. 3)"}, "[4]": {"test_system": "p53", "assay": "Western blot of HCT116 cells, p53 level", "type": "cell-based, human", "settings": "Western blot (FIG. 2, FIG. 3)"}},
  "data": [
    {"smiles": "COc1cc(C(=O)NCCOCCOCCOCCO[C@H]2CC[C@H](Nc3nccc(-c4cnn(Cc5ccccc5)c4N(C)C)n3)CC2)ccc1NC(=O)C1N[C@@H](CC(C)(C)C)[C@](C#N)(c2ccc(Cl)cc2F)[C@H]1c1cccc(Cl)c1F", "note": "(stereo partly drawn) [Compound A2791, 3-(3-chloro-2-fluorophenyl)-4-(4-chloro-2-fluorophenyl)-4-cyano-5-(2,2-dimethylpropyl)-N-[2-methoxy-4-({1-[(1,4-trans)-4-({4-[1-benzyl-5-(dimethylamino)-1H-pyrazol-4-yl]pyrimidin-2-yl}amino)cyclohexyl]-1,4,7,10-tetraoxadodecan-12-yl}carbamoyl)phenyl]pyrrolidine-2-carboxamide]", "values": [
      {"measurement": "Degradation activity JNK", "setting": "[1]", "result": "A (0 to 25% degradation at 1 μM)"}
    ]},
    {"smiles": "COc1ccc(C(=O)NCCOCCOCCO[C@H]2CC[C@H](Nc3nccc(-c4cnn(Cc5ccccc5)c4N(C)C)n3)CC2)cc1NC(=O)C1N[C@@H](CC(C)(C)C)[C@](C#N)(c2ccc(Cl)cc2F)[C@H]1c1cccc(Cl)c1F", "note": "(stereo partly drawn) [Compound A2766, 3-(3-chloro-2-fluorophenyl)-4-(4-chloro-2-fluorophenyl)-4-cyano-5-(2,2-dimethylpropyl)-N-[2-methoxy-5-({2-[2-(2-{[(1,4-trans)-4-({4-[1-benzyl-5-(dimethylamino)-1H-pyrazol-4-yl]pyrimidin-2-yl}amino)cyclohexyl]oxy}ethoxy)ethoxy]ethyl}carbamoyl)phenyl]pyrrolidine-2-carboxamide]", "values": [
      {"measurement": "Degradation activity JNK", "setting": "[1]", "result": "A (0 to 25% degradation at 1 μM)"}
    ]},
    {"smiles": "COc1cc(C(=O)NCCOCCO[C@H]2CC[C@H](Nc3nccc(-c4cnn(Cc5ccccc5)c4N(C)C)n3)CC2)ccc1NC(=O)C1N[C@@H](CC(C)(C)C)[C@](C#N)(c2ccc(Cl)cc2F)[C@H]1c1cccc(Cl)c1F", "note": "(stereo partly drawn) [Compound A2720, 3-(3-chloro-2-fluorophenyl)-4-(4-chloro-2-fluorophenyl)-4-cyano-5-(2,2-dimethylpropyl)-N-(2-methoxy-4-{[2-(2-{[(1,4-trans)-4-({4-[1-benzyl-5-(dimethylamino)-1H-pyrazol-4-yl]pyrimidin-2-yl}amino)cyclohexyl]oxy}ethoxy)ethyl]carbamoyl}phenyl)pyrrolidine-2-carboxamide]", "values": [
      {"measurement": "Degradation activity JNK", "setting": "[1]", "result": "A (0 to 25% degradation at 1 μM)"}
    ]},
    {"smiles": "COc1cc(C(=O)NCCOCCNC(=O)C[C@@H]2N=C(c3ccc(Cl)cc3)c3c(sc(C)c3C)-n3c(C)nnc32)ccc1NC(=O)[C@@H]1N[C@@H](CC(C)(C)C)[C@](C#N)(c2ccc(Cl)cc2F)[C@H]1c1cccc(Cl)c1F", "note": "[Compound A1892, (2R,3S,4R,5S)-3-(3-chloro-2-fluorophenyl)-4-(4-chloro-2-fluorophenyl)-N-(4-{[2-(2-{2-[(9S)-7-(4-chlorophenyl)-4,5,13-trimethyl-3-thia-1,8,11,12-tetraazatricyclo[8.3.0.0^2,^6]-trideca-2(6),4,7,10,12-pentaen-9-yl]acetamido}ethoxy)ethyl]carbamoyl}-2-methoxyphenyl)-4-cyano-5-(2,2-dimethylpropyl)pyrrolidine-2-carboxamide]", "values": [
      {"measurement": "Degradation activity BRD4", "setting": "[2]", "result": "C (larger than 50% degradation at 1 μM)"},
      {"measurement": "MDM2 up-regulation", "setting": "[3]", "result": "up-regulation of MDM2"},
      {"measurement": "p53 level increase", "setting": "[4]", "result": "dose dependent p53 level increase"}
    ]},
    {"smiles": "COc1ccc(C(=O)NCCOCCOCCOCCOCCO[C@H]2CC[C@H](Nc3nccc(-c4cnn(Cc5ccccc5)c4N(C)C)n3)CC2)cc1NC(=O)C1N[C@@H](CC(C)(C)C)[C@](C#N)(c2ccc(Cl)cc2F)[C@H]1c1cccc(Cl)c1F", "note": "(stereo partly drawn) [Compound A2792, 3-(3-chloro-2-fluorophenyl)-4-(4-chloro-2-fluorophenyl)-4-cyano-5-(2,2-dimethylpropyl)-N-[2-methoxy-5-({1-[(1,4-trans)-4-({4-[1-benzyl-5-(dimethylamino)-1H-pyrazol-4-yl]pyrimidin-2-yl}amino)cyclohexyl]-1,4,7,10,13-pentaoxapentadecan-15-yl}carbamoyl)phenyl]pyrrolidine-2-carboxamide]", "values": [
      {"measurement": "Degradation activity JNK", "setting": "[1]", "result": "A (0 to 25% degradation at 1 μM)"}
    ]}
  ]
}
